Laboratory results taken from patent US11267811B2, “Small molecule inhibitors of galectin-3” (BRISTOL-MYERS SQUIBB COMPANY, priority 2017, dated 2022).
Read-outs that look alike come from different tables or passages of the source.

Target: His-tagged recombinant human Gal-3 (hGal-3) (Homo sapiens (Human), UniProt P17931)
Assay: Gal-3 HTRF assay (His-tagged hGal-3 binding to B-ASF);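 also: compounds preincubated 30 min with hGal-3, then 1 h with B-ASF, detection via terbium anti-His antibody and streptavidin d2. Control with B-ASF counts as full signal, omitting B-ASF as background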
[1] = HTRF, hGal-3 15 nM, B-ASF 15 nM, read-out: hGal-3 IC50

His-tagged recombinant human Gal-3 (hGal-3), sequence (P17931 whole entry): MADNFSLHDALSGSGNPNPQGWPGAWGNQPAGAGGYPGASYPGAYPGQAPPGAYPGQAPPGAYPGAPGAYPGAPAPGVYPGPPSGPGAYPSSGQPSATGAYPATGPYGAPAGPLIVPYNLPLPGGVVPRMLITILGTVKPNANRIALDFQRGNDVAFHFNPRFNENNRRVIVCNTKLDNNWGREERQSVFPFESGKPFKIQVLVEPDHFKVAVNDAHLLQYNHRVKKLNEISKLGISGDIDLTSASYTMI

Compound | IC50 [1] | IC50 (read-out: hGal3 IC50)
OC[C@H]1O[C@@H](c2oncc2-c2ccc(Cl)c(Cl)c2)[C@H](O)[C@@H](n2cc(-c3cc(F)c(F)c(F)c3)nn2)[C@H]1O [Example 288, (2R,3R,4S,5R,6R)-2-(4-(3,4-dichlorophenyl)isoxazol-5-yl)-6-(hydroxymethyl)-4-(4-(3,4,5-trifluorophenyl)-1H-1,2,3-triazol-1-yl)tetrahydro-2H-pyran-3,5-diol] | 4000 nM | 
OC[C@H]1O[C@@H](c2nn[nH]c2-c2cccc(Cl)c2)[C@H](O)[C@@H](n2cc(-c3cc(F)c(F)c(F)c3)nn2)[C@H]1O [Example 290, (2S,3R,4R,5R,6R)-2-(5-(3-chlorophenyl)-1H-1,2,3-triazol-4-yl)-6-(hydroxymethyl)-4-(4-(3,4,5-trifluorophenyl)-1H-1,2,3-triazol-1-yl)tetrahydro-2H-pyran-3,5-diol] | 3000 nM | 
OC[C@H]1O[C@@H](n2ccc3cc(Cl)ccc32)[C@H](O)[C@@H](n2cc(-c3cc(F)c(F)c(F)c3)nn2)[C@H]1O [Example 291, (2R,3R,4S,5R,6R)-2-(5-chloro-1H-indol-1-yl)-6-(hydroxymethyl)-4-(4-(3,4,5-trifluorophenyl)-1H-1,2,3-triazol-1-yl)tetrahydro-2H-pyran-3,5-diol] | 10000 nM | 
COc1ccc([C@@H]2O[C@H](CO)[C@H](O)[C@H](n3cc(-c4cc(F)c(F)c(F)c4)nn3)[C@H]2O)cc1 [Example 292, (2R,3R,4R,5R,6S)-2-(hydroxymethyl)-6-(4-methoxyphenyl)-4-(4-(3,4,5-trifluorophenyl)-1H-1,2,3-triazol-1-yl)tetrahydro-2H-pyran-3,5-diol] | 10000 nM | 
CNC(=O)c1nnc([C@@H]2O[C@H](CO)[C@H](O)[C@H](n3cc(-c4cccc(F)c4)nn3)[C@H]2O)o1 [Example 295, 5-((2R,3R,4S,5R,6R)-4-(4-(3-fluorophenyl)-1H-1,2,3-triazol-1-yl)-3,5-dihydroxy-6-(hydroxymethyl)tetrahydro-2H-pyran-2-yl)-N-methyl-1,3,4-oxadiazole-2-carboxamide] | 14400 nM | 
O=C(NCc1ccncc1)c1nnc([C@@H]2O[C@H](CO)[C@H](O)[C@H](n3cc(-c4cccc(F)c4)nn3)[C@H]2O)o1 [Example 296, 5-((2R,3R,4S,5R,6R)-4-(4-(3-fluorophenyl)-1H-1,2,3-triazol-1-yl)-3,5-dihydroxy-6-(hydroxymethyl)tetrahydro-2H-pyran-2-yl)-N-(pyridin-4-ylmethyl)-1,3,4-oxadiazole-2-carboxamide] | 1490 nM | 
CCN(CC)CCNC(=O)c1nnc([C@@H]2O[C@H](CO)[C@H](O)[C@H](n3cc(-c4cccc(F)c4)nn3)[C@H]2O)o1 [Example 297, N-(2-(diethylamino)ethyl)-5-((2R,3R,4S,5R,6R)-4-(4-(3-fluorophenyl)-1H-1,2,3-triazol-1-yl)-3,5-dihydroxy-6-(hydroxymethyl)tetrahydro-2H-pyran-2-yl)-1,3,4-oxadiazole-2-carboxamide] | 9770 nM | 
O=C(NCc1cccnc1)c1nnc([C@@H]2O[C@H](CO)[C@H](O)[C@H](n3cc(-c4cccc(F)c4)nn3)[C@H]2O)o1 [Example 298, 5-((2R,3R,4S,5R,6R)-4-(4-(3-fluorophenyl)-1H-1,2,3-triazol-1-yl)-3,5-dihydroxy-6-(hydroxymethyl)tetrahydro-2H-pyran-2-yl)-N-(pyridin-3-ylmethyl)-1,3,4-oxadiazole-2-carboxamide] | 43600 nM | 
O=C(NCCN1CCOCC1)c1nnc([C@@H]2O[C@H](CO)[C@H](O)[C@H](n3cc(-c4cccc(F)c4)nn3)[C@H]2O)o1 [Example 299, 5-((2R,3R,4S,5R,6R)-4-(4-(3-fluorophenyl)-1H-1,2,3-triazol-1-yl)-3,5-dihydroxy-6-(hydroxymethyl)tetrahydro-2H-pyran-2-yl)-N-(2-morpholinoethyl)-1,3,4-oxadiazole-2-carboxamide] | 10600 nM | 
Cc1nc([C@@H]2O[C@H](CO)[C@H](O)[C@H](n3cc(-c4cccc(F)c4)nn3)[C@H]2O)oc1CO [Example 300, (2R,3R,4S,5R,6R)-4-(4-(3-fluorophenyl)-1H-1,2,3-triazol-1-yl)-2-(hydroxymethyl)-6-(5-(hydroxymethyl)-4-methyloxazol-2-yl)tetrahydro-2H-pyran-3,5-diol] | 9430 nM | 
Cc1nc([C@@H]2O[C@H](CO)[C@H](O)[C@H](n3cc(-c4cccc(F)c4)nn3)[C@H]2O)oc1C(=O)O [Example 301, 2-((2R,3R,4S,5R,6R)-4-(4-(3-fluorophenyl)-1H-1,2,3-triazol-1-yl)-3,5-dihydroxy-6-(hydroxymethyl)tetrahydro-2H-pyran-2-yl)-4-methyloxazole-5-carboxylic acid] | 6350 nM | 
Cc1nc2ccc(-n3cnnc3[C@@H]3O[C@H](CO)[C@H](O)[C@H](n4cc(-c5cc(F)c(Cl)c(F)c5)nn4)[C@H]3O)cc2s1 [Example 302] |  | 28 nM
Cc1nc2ccc(-n3cnnc3[C@@H]3O[C@H](CO)[C@H](O)[C@H](n4cc(-c5ccc(Cl)c(F)c5)nn4)[C@H]3O)cc2s1 [Example 303] |  | 23 nM
OC[C@H]1O[C@@H](c2nncn2-c2cc(Cl)ccc2Cl)[C@H](O)[C@@H](n2cc(-c3ccc(Cl)c(F)c3)nn2)[C@H]1O [Example 304] |  | 67 nM
Cc1nc2ccc(-n3c(C)nnc3[C@@H]3O[C@H](CO)[C@H](O)[C@H](n4cc(-c5ccc(Cl)c(F)c5)nn4)[C@H]3O)cc2s1 [Example 305] |  | 31 nM
Cc1nc2ccc(-n3c(C)nnc3[C@@H]3O[C@H](CO)[C@H](O)[C@H](n4cc(-c5cc(F)c(Cl)c(F)c5)nn4)[C@H]3O)cc2s1 [Example 306] |  | 35 nM
CO[C@@H]1[C@@H](n2cc(-c3cc(F)c(Cl)c(F)c3)nn2)[C@@H](O)[C@@H](CO)O[C@H]1c1nncn1-c1cc(Cl)ccc1C(F)(F)F [Example 308] |  | 22 nM

The remaining lines, values ahead:

IC50 [1] | IC50 (read-out: hGal3 IC50) | Compound
 | 20 nM | OC[C@H]1O[C@@H](c2nncn2-c2cc(Cl)ccc2C(F)(F)F)[C@H](O)[C@@H](n2cc(-c3ccc(Cl)c(F)c3)nn2)[C@H]1O [Example 309]
 | 22 nM | CO[C@@H]1[C@@H](n2cc(-c3cc(F)c(Cl)c(F)c3)nn2)[C@@H](O)[C@@H](CO)O[C@H]1c1nnc(C)n1-c1cc(Cl)ccc1C(F)(F)F [Example 310]
 | 12 nM | Cc1nnc([C@@H]2O[C@H](CO)[C@H](O)[C@H](n3cc(-c4cc(F)c(Cl)c(F)c4)nn3)[C@H]2O)n1-c1cc(Cl)ccc1C(F)(F)F [Example 311]
 | 1600 nM | N#Cc1ccc(Cl)cc1-n1cnnc1[C@@H]1O[C@H](CO)[C@H](O)[C@H](n2cc(-c3cc(F)c(Cl)c(F)c3)nn2)[C@H]1O [Example 312]
 | 8.7 nM | Cc1nnc([C@@H]2O[C@H](CO)[C@H](O)[C@H](n3cc(-c4cc(F)c(Br)c(F)c4)nn3)[C@H]2O)n1-c1cc(Cl)ccc1C(F)(F)F [Example 313]
 | 57 nM | Cc1nc2ccc(-n3c([C@@H]4O[C@H](CO)[C@H](O)[C@H](n5cc(-c6cc(F)c(Br)c(F)c6)nn5)[C@H]4O)nnc3C(F)(F)F)cc2s1 [Example 314]
 | 980 nM | Cc1nc2ccc(-n3c([C@@H]4O[C@H](CO)[C@H](O)[C@H](n5cc(-c6ccc(Br)c(F)c6)nn5)[C@H]4O)nnc3C(F)(F)F)cc2s1 [Example 315]
 | 11 nM | Cc1nnc([C@@H]2O[C@H](CO)[C@H](O)[C@H](n3cc(-c4cc(F)c(Br)c(F)c4)nn3)[C@H]2O)n1-c1cc(Cl)cc2cccnc12 [Example 318]
 | 14 nM | Cc1nnc([C@@H]2O[C@H](CO)[C@H](O)[C@H](n3cc(-c4cc(F)c(Cl)c(F)c4)nn3)[C@H]2O)n1-c1cc(Cl)cc2cccnc12 [Example 319]
53 nM |  | Cc1nc2ccc(-n3cnnc3[C@@H]3O[C@H](CO)[C@H](O)[C@H](n4cc(-c5cc(F)c(Br)c(F)c5)nn4)[C@H]3OCC(F)F)cc2s1 [Example 321, (2R,3R,4S,5R,6S)-4-(4-(4-bromo-3,5-difluorophenyl)-1H-1,2,3-triazol-1-yl)-5-(2,2-difluoroethoxy)-2-(hydroxymethyl)-6-(4-(2-methylbenzo[d]thiazol-6-yl)-4H-1,2,4-triazol-3-yl)tetrahydro-2H-pyran-3-ol]
72 nM |  | Cc1nc2ccc(-n3cnnc3[C@@H]3O[C@H](CO)[C@H](O)[C@H](n4cc(-c5ccc(Br)c(F)c5)nn4)[C@H]3OCC(F)F)cc2s1 [Example 322, (2R,3R,4S,5R,6S)-4-(4-(4-bromo-3-fluorophenyl)-1H-1,2,3-triazol-1-yl)-5-(2,2-difluoroethoxy)-2-(hydroxymethyl)-6-(4-(2-methylbenzo[d]thiazol-6-yl)-4H-1,2,4-triazol-3-yl)tetrahydro-2H-pyran-3-ol]
130 nM |  | OC[C@H]1O[C@@H](c2nncn2-c2cc(Cl)cc3cccnc23)[C@H](OCC(F)F)[C@@H](n2cc(-c3ccc(Br)c(F)c3)nn2)[C@H]1O [Example 323, (2R,3R,4S,5R,6S)-4-(4-(4-bromo-3-fluorophenyl)-1H-1,2,3-triazol-1-yl)-6-(4-(6-chloroquinolin-8-yl)-4H-1,2,4-triazol-3-yl)-5-(2,2-difluoroethoxy)-2-(hydroxymethyl)tetrahydro-2H-pyran-3-ol]
20 nM |  | Cc1nnc([C@@H]2O[C@H](CO)[C@H](O)[C@H](n3cc(-c4ccc(Br)c(F)c4)nn3)[C@H]2OCC(F)F)n1-c1cc(Cl)ccc1C(F)(F)F [Example 325, (2R,3R,4S,5R,6S)-4-(4-(4-bromo-3-fluorophenyl)-1H-1,2,3-triazol-1-yl)-6-(4-(5-chloro-2-(trifluoromethyl)phenyl)-5-methyl-4H-1,2,4-triazol-3-yl)-5-(2,2-difluoroethoxy)-2-(hydroxymethyl)tetrahydro-2H-pyran-3-ol]
44 nM |  | OC[C@H]1O[C@@H](c2nncn2-c2cc(Cl)ccc2Cl)[C@H](O)[C@@H](n2cc(-c3cc(F)c(Cl)c(F)c3)nn2)[C@H]1O [Example 326, (2S,3R,4R,5R,6R)-4-(4-(4-chloro-3,5-difluorophenyl)-1H-1,2,3-triazol-1-yl)-2-(4-(2,5-dichlorophenyl)-4H-1,2,4-triazol-3-yl)-6-(hydroxymethyl)tetrahydro-2H-py ran-3,5-diol]
